Measurements: patent US3933793A, “Therapeutically active 2-aminoalkylthio-3H-1.5-benzodiazepines and process for preparing them” (Recordati S.A. Chemical and Pharmaceutical Company, priority 1971, dated 1976)
Converted amounts (≈) assume the structure as drawn. Where a name gives a salt, the structure may show the parent alone.

Legend:
[1] = system: Escherichia coli 100; assay: Antibacterial activity, minimum inhibitory concentration; conditions: Escherichia coli, 100, 18 h, read-out: minimum inhibitory concentration, B. coli
Protocol: (§1) The antibacterial activity of some of the 3H-1,5-benzodiazepines having the general formula I was tested on the following microorganisms:
(§2) Escherichia coli 100, Bacillus subtilis ATCC 9466, Micrococcus pyogenes SG-511, grown in Difco nutritive gelatin; Streptococcus pyogenes A 88 grown in Difco "Brain heart infusion agar" gelatin with 5 percent difibrinated Guinea pig blood.
(§3) The results were read after 18 hours incubation at 35°-37°C.

[2] = system: Bacillus subtilis ATCC 9466; assay: as above; conditions: ATCC9466, 18 h, read-out: minimum inhibitory concentration, B. subtilis
Protocol: as §1, §2, §3

[3] = system: influenza A virus (PR8 strain); format: in vivo; conditions: 0.5 MTD in 10 ml buffered saline with virus, 1 hour at 37°C
[4] = system: Streptococcus pyogenes A 88; assay: Antibacterial activity, minimum inhibitory concentration; conditions: A88, 18 h, read-out: minimum inhibitory concentration, S. pyogenes
Protocol: as §1, §2, §3

[5] = system: Micrococcus pyogenes SG-511; assay: as above; conditions: Staphylococcus aureus, SG511, 18 h, read-out: minimum inhibitory concentration, M. pyogenes
Protocol: as §1, §2, §3

For `C[N+]1(CCSC2=Nc3ccccc3N=C(c3ccc(Sc4ccccc4)cc3)C2)CCCC1` [Compound 44, 2, beta,N-pyrrolidinoethylthio-4,p-phenylthiophenyl-3H-1,5-benzodiazepine iodomethylate], the MIC [1] was 160 µg/mL, the MIC [2] was 40 µg/mL and the “APR8: difference between logarithms of EID95 of controls and of treated eggs” value (“APR8: difference between logarithms” for short) [3] was 2.
In the case of `C[N+]1(CCSC2=Nc3ccccc3N=C(c3ccc(Sc4ccccc4)cc3)C2)CCOCC1` [Compound 50, 2,beta,N-morpholinoethylthio-4,p-phenylthiophenyl-3H-1,5-benzodiazepine iodomethylate], the MIC [1] is reported as 160 µg/mL, the MIC [2] is reported as 10 µg/mL and the “APR8: difference between logarithms” value [3] is reported as 2.
In the case of `C[N+]1(CCCSC2=Nc3ccccc3N=C(c3ccc(Sc4ccccc4)cc3)C2)CCCC1` [Compound 38, 2,gamma,N-pyrrolidinopropylthio-4,p-phenylthiophenyl-3H-1,5-benzodiazepine iodomethylate], the MIC [1] is reported as 160 µg/mL, the MIC [2] is reported as 10 µg/mL and the “APR8: difference between logarithms” value [3] is reported as 3. The MIC [4] was 10 µg/mL and the MIC [5] was 2.5 µg/mL.
With `C[N+](C)(C)CCCSC1=Nc2ccccc2N=C(c2ccc(Sc3ccccc3)cc2)C1` [Compound 42, 2,gamma,N-dimethylaminopropylthio-4,p-phenylthiophenyl-3H-1,5-benzodiazepine iodomethylate] the MIC [1] was 80 µg/mL, the MIC [2] was 40 µg/mL and the “APR8: difference between logarithms” value [3] was 3.
`CC[N+](C)(CC)CCCSC1=Nc2ccccc2N=C(c2ccc(Sc3ccccc3)cc2)C1` [Compound 40, 2,gamma,N-diethylaminopropylthio-4,p-phenylthiophenyl-3H-1,5-benzodiazepineiodomethylate] was tested, and the MIC [1] was 5 µg/mL, the MIC [2] was 5 µg/mL and the “APR8: difference between logarithms” value [3] was 1. For the same compound, the MIC [4] was 5 µg/mL.
For `C[N+](C)(C)CCSC1=Nc2ccccc2N=C(c2ccc(Sc3ccccc3)cc2)C1` [Compound 46, 2,beta,N-dimethylaminoethylthio-4,p-phenylthiophenyl-3H-1,5-benzodiazepine iodomethylate], the MIC [1] was 160 µg/mL, the MIC [2] was 20 µg/mL and the “APR8: difference between logarithms” value [3] was 2.
In the case of `C[N+]1(CCSC2=Nc3ccccc3N=C(c3ccc(Sc4ccccc4)cc3)C2)CCCCC1` [Compound 48, 2,beta,N-piperidinoethylthio-4,p-phenylthiophenyl-3H-1,5-benzodiazepine iodomethylate], the MIC [1] is reported as 80 µg/mL, the MIC [2] is reported as 10 µg/mL and the “APR8: difference between logarithms” value [3] is reported as greater than 4.
In the case of `CN(C)CCCSC1=Nc2ccccc2N=C(c2ccc(Sc3ccccc3)cc2)C1` [Compound 41, 2,gamma,N-dimethylaminopropylthio-4,p-phenylthiophenyl-3H-1,5-benzodiazepine.HCl], the MIC [2] is reported as 10 µg/mL, the “APR8: difference between logarithms” value [3] is reported as greater than 3 and the MIC [4] is reported as 1.25 µg/mL.
For `C[N+]1(C)CCN(CCSC2=Nc3ccccc3N=C(c3ccc(Sc4ccccc4)cc3)C2)CC1` [Compound 35, 2,beta,N(N'-methyl)piperazinoethylthio-4,p-phenylthiophenyl-3H-1,5-benzodiazepine monoiodomethylate], the MIC [2] was 10 µg/mL and the “APR8: difference between logarithms” value [3] was 2.
For `CCN(CC)CCSC1=Nc2ccccc2N=C(c2ccc(C)cc2)C1` [Compound 66], the MIC [2] was 40 µg/mL (≈ 109 µM), the “APR8: difference between logarithms” value [3] was 1 and the MIC [4] was 80 µg/mL (≈ 219 µM).
